Reference: BindingDB's records for doi:10.1021/acs.biochem.5b01128 (University College London, 2016)
pIC50: −log10 of the molar value.

What follows are compounds tested against Dual specificity protein kinase CLK2 (Homo sapiens, UniProt P49760) (assay: Kinase Inhibition Assay).
Sequence of Dual specificity protein kinase CLK2 (P49760 whole entry): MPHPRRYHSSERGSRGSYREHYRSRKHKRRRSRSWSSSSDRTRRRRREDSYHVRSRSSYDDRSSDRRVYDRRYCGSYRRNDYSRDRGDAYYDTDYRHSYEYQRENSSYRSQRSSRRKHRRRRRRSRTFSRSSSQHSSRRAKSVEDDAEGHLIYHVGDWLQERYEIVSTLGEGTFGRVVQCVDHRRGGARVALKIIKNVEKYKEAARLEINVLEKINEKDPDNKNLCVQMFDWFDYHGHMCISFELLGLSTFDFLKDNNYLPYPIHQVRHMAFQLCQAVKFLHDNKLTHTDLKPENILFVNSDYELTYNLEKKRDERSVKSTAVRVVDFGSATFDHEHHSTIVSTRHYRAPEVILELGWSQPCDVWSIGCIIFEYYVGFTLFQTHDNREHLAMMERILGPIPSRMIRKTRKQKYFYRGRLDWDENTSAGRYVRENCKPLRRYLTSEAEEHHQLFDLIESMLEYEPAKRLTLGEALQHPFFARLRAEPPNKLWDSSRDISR

Row | Compound | pIC50
1 | CSc1nc2ccc3nc(NC(=O)c4ccc(S(=O)(=O)N5CCOCC5)cc4)sc3c2s1 [5F4] | 6.90
2 | O=C1N=C(NCc2cccs2)S/C1=C/c1ccc2ncccc2c1 [NR9] | 6.26
3 | Cc1nc2ccc3sc(NC(=O)c4ccc5ncsc5c4)nc3c2s1 [3A5] | 7.17
4 | CSc1nc2ccc3nc(NC(=O)c4ccco4)sc3c2s1 [5E4] | 6.76

What follows are compounds tested against Dual specificity protein kinase CLK1 (Homo sapiens, UniProt P49759) (assay: Kinase Inhibition Assay).
Sequence of Dual specificity protein kinase CLK1 (P49759 whole entry): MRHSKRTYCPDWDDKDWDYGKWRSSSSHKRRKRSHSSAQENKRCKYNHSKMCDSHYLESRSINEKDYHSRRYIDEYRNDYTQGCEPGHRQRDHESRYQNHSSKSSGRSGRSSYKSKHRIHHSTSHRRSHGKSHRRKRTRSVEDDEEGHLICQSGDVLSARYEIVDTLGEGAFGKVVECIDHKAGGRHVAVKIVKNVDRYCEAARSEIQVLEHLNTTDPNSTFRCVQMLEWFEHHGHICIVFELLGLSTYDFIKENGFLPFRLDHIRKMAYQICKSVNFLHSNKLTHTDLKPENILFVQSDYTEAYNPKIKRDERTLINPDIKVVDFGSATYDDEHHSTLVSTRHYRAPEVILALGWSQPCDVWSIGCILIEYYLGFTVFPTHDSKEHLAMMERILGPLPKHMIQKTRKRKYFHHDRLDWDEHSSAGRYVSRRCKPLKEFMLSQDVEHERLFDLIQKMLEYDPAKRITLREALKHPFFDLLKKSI

Row | Compound | pIC50
5 | CSc1nc2ccc3nc(NC(=O)c4ccc(S(=O)(=O)N5CCOCC5)cc4)sc3c2s1 [5F4] | 6.56
6 | O=C1N=C(NCc2cccs2)S/C1=C/c1ccc2ncccc2c1 [NR9] | 6.41
7 | Cc1nc2ccc3sc(NC(=O)c4ccc5ncsc5c4)nc3c2s1 [3A5] | 7.29
8 | CSc1nc2ccc3nc(NC(=O)c4ccco4)sc3c2s1 [5E4] | 6.56

Each compound was assayed against Dual specificity protein kinase CLK3 (Homo sapiens, UniProt P49761) (assay: Kinase Inhibition Assay).
Sequence of Dual specificity protein kinase CLK3 (P49761 as listed by the source): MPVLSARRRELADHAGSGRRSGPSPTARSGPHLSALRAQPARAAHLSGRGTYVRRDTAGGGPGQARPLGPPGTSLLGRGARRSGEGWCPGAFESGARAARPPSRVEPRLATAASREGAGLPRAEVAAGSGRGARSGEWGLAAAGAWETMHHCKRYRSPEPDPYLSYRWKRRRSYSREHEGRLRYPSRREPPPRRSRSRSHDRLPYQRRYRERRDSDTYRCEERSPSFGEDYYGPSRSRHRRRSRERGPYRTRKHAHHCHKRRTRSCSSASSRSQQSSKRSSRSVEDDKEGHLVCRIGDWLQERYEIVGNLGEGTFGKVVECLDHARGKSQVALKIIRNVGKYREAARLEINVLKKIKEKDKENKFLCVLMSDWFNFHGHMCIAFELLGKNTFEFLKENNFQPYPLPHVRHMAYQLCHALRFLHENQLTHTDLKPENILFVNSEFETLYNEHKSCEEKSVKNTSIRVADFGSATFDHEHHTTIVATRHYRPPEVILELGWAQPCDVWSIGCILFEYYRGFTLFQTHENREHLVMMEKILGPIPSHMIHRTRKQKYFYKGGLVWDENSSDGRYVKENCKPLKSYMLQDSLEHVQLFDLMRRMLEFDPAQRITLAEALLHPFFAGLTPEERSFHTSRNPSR

Row | Compound | pIC50
9 | CSc1nc2ccc3nc(NC(=O)c4ccc(S(=O)(=O)N5CCOCC5)cc4)sc3c2s1 [5F4] | < 5.52
10 | O=C1N=C(NCc2cccs2)S/C1=C/c1ccc2ncccc2c1 [NR9] | < 5.52
11 | Cc1nc2ccc3sc(NC(=O)c4ccc5ncsc5c4)nc3c2s1 [3A5] | 6.46
12 | CSc1nc2ccc3nc(NC(=O)c4ccco4)sc3c2s1 [5E4] | < 5.52

The compounds below were run against Dual specificity tyrosine-phosphorylation-regulated kinase 1A (Homo sapiens, UniProt Q13627) (assay: Kinase Inhibition Assay).

Row | Compound | pIC50
13 | CSc1nc2ccc3nc(NC(=O)c4ccc(S(=O)(=O)N5CCOCC5)cc4)sc3c2s1 [5F4] | 6.67
14 | Cc1nc2ccc3sc(NC(=O)c4ccc5ncsc5c4)nc3c2s1 [3A5] | 6.59
15 | CSc1nc2ccc3nc(NC(=O)c4ccco4)sc3c2s1 [5E4] | 6.48
